Data taken from patent publication US6156790A, “C-10 carbon-substituted artemisinin-like trioxane compounds having antimalarial, antiproliferative and antitumor activities” (priority 1997, dated 2000).

How the values were obtained:
[1] = tested on: SK-MEL-5; assay: NCI 60 cell line screen (SRB), melanoma; format: cell-based; details: Homo sapiens
[2] = tested on: NCI-H322M; assay: cells; format: cell-based; details: Homo sapiens, read-out: Log10 TGI
[3] = tested on: P. falciparum; details: Camp (chloroquine-susceptible) and Smith (chloroquine-resistant) strains; cited from earlier work
[4] = tested on: HL-60(TB); assay: cells; details: Homo sapiens
[5] = tested on: P. berghei; details: P. berghei-infected mice; cited from earlier work
[6] = tested on: RPMI-8226; assay: cells; format: cell-based; details: Homo sapiens
[7] = tested on: P. falciparum; details: two Hanian strains; cited from earlier work
[8] = cited from earlier work
[9] = tested on: SK-OV-3; assay: NCI 60 cell line screen (SRB), ovarian cancer; format: cell-based; details: Homo sapiens
[10] = tested on: murine keratinocyte cell line PE; assay: growth inhibition of PE cells (MTT assay); format: cell-based; details: 100 nanomolar
Description: To determine the inhibitory effect of the compositions of the present invention on cell proliferation, screening assays were performed on a murine keratinocyte cell line PE. Cell line PE was chosen for its particular sensitivity to the induction of ornithine decarboxylase (ODC) activity by the extensively characterized tumor promoter TPA. […] PE cell culture medium consisted of Eagle's minimal essential medium without calcium chloride (Whittaker Bioproducts, Walkersville, Mass.) supplemented with 8% chelexed fetal calf serum and 1% antibiotic-antimycotic (Gibco BRL) and the addition of CaCl2 to 0.05 mM Ca^++.
Growth Inhibition. Growth curves, shown in FIGS. 1 and 2, for PE cells treated with calcitriol and the C-10 carbon-substituted dimers 21, 22, 26, 27, and 28 generated by assay for the reduction of the tetrazolium-based compound MTT, see Charmichael, et al., Cancer Res., 47:936-942 (1987). […] PE cells were seeded at a density of 5,000 cells/well in 50 μL of medium into 96-well microtiter plates. Twelve hours later, the medium was removed, and cells were treated with 100 μL of fresh medium into which the appropriate amount of calcitrol or analog dissolved in dimethyl sulfoxide (DMSO) had been added, with the concentration of DMSO held constant at 0.1%. […] At 24-hour intervals following the initial treatment of the cells with compounds, 0.1 mg (50 μL of a 2 mg/mL solution) of MTT was added to each well. After 4 hours, the MTT was removed and DMSO added to dissolve the blue formazan dye. Using a microtiter plate reader, the A505 was then determined and cell number calculated from blank-subtracted absorbance values.

[11] = tested on: DU-145; assay: cells; format: cell-based; details: Homo sapiens
[12] = read-out: Log10 LC50 (converted)
[13] = read-out: Log10 TGI (converted)
[14] = read-out: Log10 GI50 (converted)

C[C@H]1[C@@H](F)O[C@@H]2O[C@@]3(C)CC[C@H]4[C@H](C)CC[C@@H]1[C@@]24OO3 [Compound VI, 10β-Fluorodeoxoartemisinin]
CC50 [1, 12]: 61.7 µM
IC (TGI) [1, 13]: 13.5 µM
IC (TGI) [2]: > 100 µM

C[C@@H]1CC[C@H]2[C@@H](C)C(=O)O[C@@H]3O[C@@]4(C)CC[C@@H]1[C@]32OO4 [Artemisinin]
potency in vitro compared with mefloquine [3]: comparable
GI50 ([4]; HL-60, read-out: Log10 GI50 (converted)): 55 µM
CC50 ([4]; HL-60, read-out: Log10 LC50 (converted)): > 100 µM
IC (TGI) ([4]; HL-60, read-out: Log10 TGI): 100 µM
SD90 (parasitemia 90 percent suppressed) [5]: 6.20 mg/kg
CC50 [6, 12]: > 100 µM
IC (TGI) ([6]; read-out: Log10 TGI): > 100 µM
potency in vitro compared with chloroquine [7]: comparable to that of chloroquine
solubility in water [8]: insolubility in water

C[C@H]1[C@@H](CC(=O)c2ccc(C(=O)C[C@H]3O[C@@H]4O[C@@]5(C)CC[C@H]6[C@H](C)CC[C@@H]([C@H]3C)[C@@]46OO5)cc2)O[C@@H]2O[C@@]3(C)CC[C@H]4[C@H](C)CC[C@@H]1[C@@]24OO3 [Dimer 21]
GI50 [9, 14]: 263 µM
CC50 [9, 12]: 52.5 µM
antiproliferative activity compared with calcitriol [10]: at least as antiproliferative as calcitrol
GI50 [11, 14]: 6.31 µM
IC (TGI) [11, 13]: 31.6 µM
